Reference: ChEMBL document CHEMBL1201862, “PubChem BioAssay data set” (2004)
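Dose response: 5 concentrations. Exposure: 48 h. Format: 96-well plates. Endpoint: linear interpolation; highest concentration if not reached. Abbreviation: GI50, concentration required for 50% inhibition of growth.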 Active and inactive are the calls of the source. No stated cut-off is given here; in the data, active = GI50 up to about 1.1 µM and inactive = higher.

Assays:
Experiment in all cases: NCI tumour cell line growth inhibition, 48 h
ACHN = test system: ACHN
COLO 205 = test system: COLO 205
EKVX = test system: EKVX
HCT-116 = test system: HCT-116
HOP-62 = test system: HOP-62
Hs-578T = test system: Hs-578T
IGROV-1 = test system: IGROV-1
K562 = test system: K562
MDA-MB-231 = test system: MDA-MB-231
MDA-MB-435 = test system: MDA-MB-435
NCI-H522 = test system: NCI-H522
NCI/ADR-RES = test system: NCI/ADR-RES
OVCAR-4 = test system: OVCAR-4
PC-3 = test system: PC-3
SF-295 = test system: SF-295
SF-539 = test system: SF-539
SK-OV-3 = test system: SK-OV-3
SNB-75 = test system: SNB-75
U-251 = test system: U-251
UACC-62 = test system: UACC-62

Measured: GI50

COc1c(-c2cc(C)c(Cl)c(=O)[nH]2)c(O)c(OC)c2occc12
inactive: ACHN > 100 µM | COLO 205 > 100 µM | EKVX > 100 µM | HCT-116 > 100 µM | HOP-62 > 100 µM | Hs-578T > 10 µM | IGROV-1 > 100 µM | K562 > 100 µM | MDA-MB-231 75.9 µM | MDA-MB-435 > 100 µM | NCI-H522 > 100 µM | NCI/ADR-RES > 100 µM | OVCAR-4 > 100 µM | PC-3 > 100 µM | SF-295 > 100 µM | SF-539 > 100 µM | SK-OV-3 > 100 µM | SNB-75 26.7 µM | U-251 > 100 µM | UACC-62 64 µM

CC(C)=CCC[C@H](C)[C@H]1CC[C@@H](C)c2cc(O)c(C)cc21
inactive: ACHN 16.8 µM | COLO 205 18.3 µM | EKVX 17.6 µM | HCT-116 18.4 µM | HOP-62 19.1 µM | Hs-578T 19.9 µM | IGROV-1 17.1 µM | K562 20.1 µM | MDA-MB-231 18.2 µM | MDA-MB-435 18.6 µM | NCI-H522 17.4 µM | NCI/ADR-RES 19.5 µM | OVCAR-4 15.5 µM | PC-3 17.4 µM | SF-295 16.9 µM | SF-539 17.8 µM | SK-OV-3 19.1 µM | SNB-75 19.1 µM | U-251 17.1 µM | UACC-62 14.5 µM

COc1cc(CNc2nc3ccccc3n2Cc2ccccc2)cc(CN2CCOCC2)c1O
inactive: ACHN 39.6 µM | COLO 205 20.9 µM | EKVX 53.3 µM | HCT-116 21.2 µM | HOP-62 28.6 µM | Hs-578T 29.9 µM | IGROV-1 52 µM | K562 21.5 µM | MDA-MB-231 18.7 µM | MDA-MB-435 22.5 µM | NCI-H522 32.4 µM | NCI/ADR-RES 23 µM | OVCAR-4 61.4 µM | PC-3 29.4 µM | SF-295 19.3 µM | SF-539 20 µM | SK-OV-3 96.8 µM | SNB-75 27.9 µM | U-251 31.2 µM | UACC-62 22.9 µM

Cc1cc(C)c([S@@](=O)O[C@@H]2[C@H]3OC(C)(C)O[C@H]3O[C@@H]2[C@H]2COC(C)(C)O2)c(C)c1
inactive: ACHN 15.3 µM | COLO 205 16.3 µM | EKVX 20.4 µM | HCT-116 24.8 µM | HOP-62 21.5 µM | Hs-578T 37.2 µM | IGROV-1 4.24 µM | K562 25.9 µM | MDA-MB-231 26.7 µM | MDA-MB-435 18.2 µM | NCI-H522 8.65 µM | NCI/ADR-RES 22 µM | OVCAR-4 16.5 µM | PC-3 19.9 µM | SF-295 29 µM | SF-539 19.5 µM | SK-OV-3 36.6 µM | SNB-75 21.8 µM | U-251 20.2 µM | UACC-62 22 µM

N#Cc1cnc(N)nc1NCC1(CO)CC(CCc2ccccc2)C1 (stereo not given)
inactive: ACHN > 33.5 µM | COLO 205 > 100 µM | EKVX 35.2 µM | HCT-116 12 µM | HOP-62 58.1 µM | Hs-578T > 70.8 µM | IGROV-1 55 µM | K562 2.51 µM | MDA-MB-231 56.2 µM | MDA-MB-435 25.2 µM | NCI-H522 > 55.2 µM | NCI/ADR-RES 9.95 µM | OVCAR-4 > 100 µM | PC-3 > 91.2 µM | SF-295 18.5 µM | SF-539 > 100 µM | SK-OV-3 27.1 µM | SNB-75 20.8 µM | U-251 > 59.2 µM | UACC-62 > 100 µM

O=c1c2ccccc2nc2n1NC(c1c(Cl)cccc1Cl)N2c1cccc(Cl)c1 (stereo not given)
inactive: ACHN 3.1 µM | COLO 205 8.53 µM | EKVX 6.43 µM | HCT-116 3.27 µM | HOP-62 8.38 µM | Hs-578T 7.55 µM | IGROV-1 3.34 µM | K562 54.2 µM | MDA-MB-231 2.79 µM | MDA-MB-435 9.35 µM | NCI-H522 10.4 µM | NCI/ADR-RES 6.44 µM | OVCAR-4 2.65 µM | PC-3 5.11 µM | SF-295 9.33 µM | SF-539 11.5 µM | SK-OV-3 2.26 µM | SNB-75 2.64 µM | U-251 2.14 µM | UACC-62 5.86 µM

N#CC(C#N)=CNC(N)=S
inactive: ACHN > 100 µM | COLO 205 > 100 µM | EKVX > 100 µM | HCT-116 > 100 µM | HOP-62 > 100 µM | Hs-578T > 100 µM | IGROV-1 > 100 µM | K562 > 100 µM | MDA-MB-231 > 100 µM | MDA-MB-435 > 100 µM | NCI-H522 > 100 µM | NCI/ADR-RES > 100 µM | OVCAR-4 > 100 µM | PC-3 > 100 µM | SF-295 > 100 µM | SF-539 > 100 µM | SK-OV-3 > 100 µM | SNB-75 > 100 µM | U-251 > 100 µM | UACC-62 > 100 µM

O=C(O)c1ccccc1CC1Cc2ccccc2C1=O (stereo not given)
inactive: ACHN > 100 µM | COLO 205 > 100 µM | EKVX > 100 µM | HCT-116 > 100 µM | HOP-62 > 100 µM | Hs-578T > 100 µM | IGROV-1 > 100 µM | K562 > 100 µM | MDA-MB-231 > 100 µM | MDA-MB-435 > 100 µM | NCI-H522 > 100 µM | NCI/ADR-RES > 100 µM | OVCAR-4 > 100 µM | PC-3 > 100 µM | SF-295 > 100 µM | SF-539 > 100 µM | SK-OV-3 > 100 µM | SNB-75 64.7 µM | U-251 > 100 µM | UACC-62 > 100 µM

N#Cc1c2c(c(Nc3ccc(Cl)cc3)n3c1nc1ccccc13)CCCC2
inactive: ACHN 18.6 µM | COLO 205 37.9 µM | EKVX 48.3 µM | HCT-116 8.65 µM | HOP-62 31.2 µM | Hs-578T 26.2 µM | IGROV-1 47.4 µM | K562 4.46 µM | MDA-MB-231 > 86.9 µM | MDA-MB-435 > 100 µM | NCI-H522 17.5 µM | NCI/ADR-RES 44.1 µM | OVCAR-4 16.2 µM | PC-3 7.06 µM | SF-295 28.5 µM | SF-539 21.1 µM | SK-OV-3 54.7 µM | SNB-75 28.7 µM | U-251 18.5 µM | UACC-62 > 100 µM

O=C(n1c(=O)n(-c2ccc([N+](=O)[O-])cc2)c(=O)n1C(=O)C(Cl)(Cl)Cl)C(Cl)(Cl)Cl
inactive: ACHN > 100 µM | COLO 205 > 100 µM | EKVX > 100 µM | HCT-116 > 100 µM | HOP-62 > 100 µM | Hs-578T > 100 µM | IGROV-1 > 100 µM | K562 > 10 µM | MDA-MB-231 > 100 µM | MDA-MB-435 > 100 µM | NCI-H522 > 100 µM | NCI/ADR-RES > 100 µM | OVCAR-4 > 100 µM | PC-3 > 100 µM | SF-295 > 100 µM | SF-539 > 100 µM | SK-OV-3 > 100 µM | SNB-75 > 100 µM | U-251 > 100 µM | UACC-62 > 100 µM

O=c1c2c(-c3ccccc3)onc2n(-c2ccccc2)c(=O)n1-c1ccccc1
inactive: ACHN 31.2 µM | COLO 205 > 100 µM | EKVX 20.3 µM | HCT-116 > 100 µM | HOP-62 21.8 µM | Hs-578T 28.4 µM | IGROV-1 22.5 µM | K562 > 100 µM | MDA-MB-231 > 100 µM | MDA-MB-435 > 100 µM | NCI-H522 15.7 µM | NCI/ADR-RES 16.9 µM | OVCAR-4 32.8 µM | PC-3 18.6 µM | SF-295 > 100 µM | SF-539 > 100 µM | SK-OV-3 > 100 µM | SNB-75 27.8 µM | U-251 > 100 µM | UACC-62 14.5 µM
